Assay results: PMC5564600 (Oncotarget, 2017)

Experiments:
Test in all cases: biochemical
Assay type in all cases: binding
panel of 442 kinases [1] = target: T1, panel of 442 kinases (Homo sapiens, UniProt P42679); settings: CTK; for remaining activity at 1 µM: read-out: % of control at 1 µM
T1 construct: purchased Ambit Biosciences (scanMAXX KINOMEscan)
T1 sequence (P42679 1-507): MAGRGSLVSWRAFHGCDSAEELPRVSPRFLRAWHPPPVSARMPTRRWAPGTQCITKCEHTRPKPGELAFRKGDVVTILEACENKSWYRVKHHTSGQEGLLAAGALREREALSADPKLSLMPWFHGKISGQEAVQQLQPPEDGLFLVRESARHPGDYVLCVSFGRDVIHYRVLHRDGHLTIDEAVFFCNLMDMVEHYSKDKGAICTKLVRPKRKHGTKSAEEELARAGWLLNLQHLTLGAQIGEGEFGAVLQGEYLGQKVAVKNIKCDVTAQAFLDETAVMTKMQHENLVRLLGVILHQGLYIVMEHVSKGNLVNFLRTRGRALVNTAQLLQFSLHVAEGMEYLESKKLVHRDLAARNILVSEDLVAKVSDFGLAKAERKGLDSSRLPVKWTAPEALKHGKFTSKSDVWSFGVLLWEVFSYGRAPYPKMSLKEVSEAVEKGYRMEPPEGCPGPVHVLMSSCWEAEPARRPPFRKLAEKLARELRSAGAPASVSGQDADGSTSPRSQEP

panel of 442 kinases [2] = target: T2, panel of 442 kinases (Homo sapiens, UniProt O14730); settings: kinase RIOK3; for remaining activity at 1 µM: read-out: RIOK3 (% of control at 1 µM)
T2 construct: purchased Ambit Biosciences (scanMAXX KINOMEscan)
T2 sequence (O14730 1-519): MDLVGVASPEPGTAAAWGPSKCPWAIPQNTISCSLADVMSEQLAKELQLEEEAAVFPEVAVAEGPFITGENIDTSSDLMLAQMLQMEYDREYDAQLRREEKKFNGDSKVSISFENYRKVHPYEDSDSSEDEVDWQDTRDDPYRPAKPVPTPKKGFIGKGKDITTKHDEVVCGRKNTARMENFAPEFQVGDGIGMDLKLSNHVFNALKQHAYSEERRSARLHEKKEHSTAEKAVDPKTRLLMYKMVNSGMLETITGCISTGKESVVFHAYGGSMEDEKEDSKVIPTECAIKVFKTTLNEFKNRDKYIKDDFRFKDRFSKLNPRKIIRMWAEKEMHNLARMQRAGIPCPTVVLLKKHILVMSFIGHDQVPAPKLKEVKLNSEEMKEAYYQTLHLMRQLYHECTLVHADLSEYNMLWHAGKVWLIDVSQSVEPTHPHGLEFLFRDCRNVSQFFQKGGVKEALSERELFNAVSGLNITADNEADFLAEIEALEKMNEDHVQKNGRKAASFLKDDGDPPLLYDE

panel of 442 kinases [3] = target: T3, panel of 442 kinases (Homo sapiens, UniProt O96017); settings: CHEK2; for remaining activity at 1 µM: read-out: % of control at 1 µM
T3 construct: purchased Ambit Biosciences (scanMAXX KINOMEscan)
T3 sequence (O96017 whole entry): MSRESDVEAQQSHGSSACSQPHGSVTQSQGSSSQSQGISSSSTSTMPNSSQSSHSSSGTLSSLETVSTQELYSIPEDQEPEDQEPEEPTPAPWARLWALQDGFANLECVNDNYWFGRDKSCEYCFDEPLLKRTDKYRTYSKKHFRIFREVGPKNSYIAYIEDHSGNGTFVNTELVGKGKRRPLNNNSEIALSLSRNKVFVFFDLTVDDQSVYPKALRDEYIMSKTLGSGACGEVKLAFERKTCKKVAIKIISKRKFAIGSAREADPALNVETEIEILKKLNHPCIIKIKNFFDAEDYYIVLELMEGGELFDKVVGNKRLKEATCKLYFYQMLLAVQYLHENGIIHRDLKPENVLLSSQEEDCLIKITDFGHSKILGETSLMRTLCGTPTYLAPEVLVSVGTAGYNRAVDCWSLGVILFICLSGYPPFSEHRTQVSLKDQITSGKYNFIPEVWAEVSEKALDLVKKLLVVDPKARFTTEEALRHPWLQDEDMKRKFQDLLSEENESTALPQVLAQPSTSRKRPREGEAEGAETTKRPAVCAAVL

panel of 442 kinases [4] = target: T4, panel of 442 kinases (Homo sapiens, UniProt O43353); settings: kinase RIPK2; for remaining activity at 1 µM: read-out: RIPK2 (% of control at 1 µM)
T4 construct: purchased Ambit Biosciences (scanMAXX KINOMEscan)
T4 sequence (O43353 whole entry): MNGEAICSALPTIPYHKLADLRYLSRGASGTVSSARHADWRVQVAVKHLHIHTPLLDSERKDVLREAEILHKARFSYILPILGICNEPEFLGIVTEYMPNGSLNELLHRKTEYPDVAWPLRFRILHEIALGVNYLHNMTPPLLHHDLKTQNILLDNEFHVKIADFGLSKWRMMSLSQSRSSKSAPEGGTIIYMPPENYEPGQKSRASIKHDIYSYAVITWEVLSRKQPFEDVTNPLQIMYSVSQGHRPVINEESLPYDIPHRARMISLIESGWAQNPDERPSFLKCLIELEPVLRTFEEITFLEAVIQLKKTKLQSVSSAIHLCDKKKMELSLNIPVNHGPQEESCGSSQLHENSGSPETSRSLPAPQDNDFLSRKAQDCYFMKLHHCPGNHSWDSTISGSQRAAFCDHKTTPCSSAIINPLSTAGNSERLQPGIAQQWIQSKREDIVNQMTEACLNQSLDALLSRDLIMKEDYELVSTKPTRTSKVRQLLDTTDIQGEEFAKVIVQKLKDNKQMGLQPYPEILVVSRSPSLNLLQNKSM

panel of 442 kinases [5] = target: T5, panel of 442 kinases (Homo sapiens, UniProt O75460); settings: ERN1; for remaining activity at 1 µM: read-out: % of control at 1 µM
T5 construct: purchased Ambit Biosciences (scanMAXX KINOMEscan)
T5 sequence (O75460 19-977): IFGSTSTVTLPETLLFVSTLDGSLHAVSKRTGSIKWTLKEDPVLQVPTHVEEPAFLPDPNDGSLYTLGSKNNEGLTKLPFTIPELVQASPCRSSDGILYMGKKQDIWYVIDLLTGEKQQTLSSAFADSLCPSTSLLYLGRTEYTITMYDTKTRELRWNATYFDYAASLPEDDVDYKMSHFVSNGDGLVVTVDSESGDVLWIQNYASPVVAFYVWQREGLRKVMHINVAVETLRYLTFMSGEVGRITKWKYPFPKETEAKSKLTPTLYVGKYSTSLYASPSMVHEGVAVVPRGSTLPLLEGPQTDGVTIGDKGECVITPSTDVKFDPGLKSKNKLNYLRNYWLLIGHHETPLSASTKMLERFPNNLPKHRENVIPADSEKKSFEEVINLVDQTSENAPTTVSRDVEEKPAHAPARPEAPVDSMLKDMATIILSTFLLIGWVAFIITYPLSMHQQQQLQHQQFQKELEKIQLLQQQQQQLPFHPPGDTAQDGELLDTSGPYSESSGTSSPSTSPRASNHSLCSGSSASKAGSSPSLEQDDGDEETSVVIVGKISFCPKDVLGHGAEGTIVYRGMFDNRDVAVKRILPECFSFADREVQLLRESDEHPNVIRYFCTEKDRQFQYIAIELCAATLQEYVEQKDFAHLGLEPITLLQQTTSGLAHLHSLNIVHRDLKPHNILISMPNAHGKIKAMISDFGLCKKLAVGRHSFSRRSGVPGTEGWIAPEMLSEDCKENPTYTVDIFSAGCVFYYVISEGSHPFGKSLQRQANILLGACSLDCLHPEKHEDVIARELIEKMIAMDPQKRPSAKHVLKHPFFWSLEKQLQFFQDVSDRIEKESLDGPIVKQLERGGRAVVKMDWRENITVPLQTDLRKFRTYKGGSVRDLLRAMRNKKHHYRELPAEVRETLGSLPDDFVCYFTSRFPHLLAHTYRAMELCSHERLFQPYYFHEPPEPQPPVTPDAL

panel of 442 kinases [6] = target: T6, panel of 442 kinases (Homo sapiens, UniProt P27361); settings: ERK1; for remaining activity at 1 µM: read-out: % of control at 1 µM
T6 construct: purchased Ambit Biosciences (scanMAXX KINOMEscan)
T6 sequence (P27361 whole entry): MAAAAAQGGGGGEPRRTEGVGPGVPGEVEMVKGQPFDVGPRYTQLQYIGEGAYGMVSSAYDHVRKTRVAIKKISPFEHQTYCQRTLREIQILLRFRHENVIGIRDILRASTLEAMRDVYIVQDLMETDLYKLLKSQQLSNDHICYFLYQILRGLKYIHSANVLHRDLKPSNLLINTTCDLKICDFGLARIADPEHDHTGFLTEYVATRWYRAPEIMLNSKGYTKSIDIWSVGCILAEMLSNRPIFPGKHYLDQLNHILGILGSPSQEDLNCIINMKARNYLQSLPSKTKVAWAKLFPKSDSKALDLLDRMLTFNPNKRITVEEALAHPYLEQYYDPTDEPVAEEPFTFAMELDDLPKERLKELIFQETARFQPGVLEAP

panel of 442 kinases [7] = target: T7, panel of 442 kinases (Homo sapiens, UniProt Q6PHR2); settings: kinase ULK3; for remaining activity at 1 µM: read-out: ULK3 (% of control at 1 µM)
T7 construct: purchased Ambit Biosciences (scanMAXX KINOMEscan)
T7 sequence (Q6PHR2 1-472): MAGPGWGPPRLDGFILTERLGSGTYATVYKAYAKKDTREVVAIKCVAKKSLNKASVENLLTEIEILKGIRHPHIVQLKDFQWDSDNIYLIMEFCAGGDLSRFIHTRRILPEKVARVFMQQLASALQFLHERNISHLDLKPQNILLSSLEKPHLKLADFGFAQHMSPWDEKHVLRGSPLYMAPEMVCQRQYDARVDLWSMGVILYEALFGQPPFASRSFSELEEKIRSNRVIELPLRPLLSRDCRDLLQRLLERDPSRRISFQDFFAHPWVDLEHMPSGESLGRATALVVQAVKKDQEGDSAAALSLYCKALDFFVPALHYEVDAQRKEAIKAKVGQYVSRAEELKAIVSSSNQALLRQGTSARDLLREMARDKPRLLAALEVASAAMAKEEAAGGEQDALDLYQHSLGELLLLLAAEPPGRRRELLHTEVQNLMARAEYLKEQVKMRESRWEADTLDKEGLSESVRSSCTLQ

panel of 442 kinases [8] = target: T8, panel of 442 kinases (Homo sapiens, UniProt Q13464); settings: kinase ROCK1; for remaining activity at 1 µM: read-out: ROCK1 (% of control at 1 µM)
T8 construct: purchased Ambit Biosciences (scanMAXX KINOMEscan)
T8 sequence (Q13464 whole entry): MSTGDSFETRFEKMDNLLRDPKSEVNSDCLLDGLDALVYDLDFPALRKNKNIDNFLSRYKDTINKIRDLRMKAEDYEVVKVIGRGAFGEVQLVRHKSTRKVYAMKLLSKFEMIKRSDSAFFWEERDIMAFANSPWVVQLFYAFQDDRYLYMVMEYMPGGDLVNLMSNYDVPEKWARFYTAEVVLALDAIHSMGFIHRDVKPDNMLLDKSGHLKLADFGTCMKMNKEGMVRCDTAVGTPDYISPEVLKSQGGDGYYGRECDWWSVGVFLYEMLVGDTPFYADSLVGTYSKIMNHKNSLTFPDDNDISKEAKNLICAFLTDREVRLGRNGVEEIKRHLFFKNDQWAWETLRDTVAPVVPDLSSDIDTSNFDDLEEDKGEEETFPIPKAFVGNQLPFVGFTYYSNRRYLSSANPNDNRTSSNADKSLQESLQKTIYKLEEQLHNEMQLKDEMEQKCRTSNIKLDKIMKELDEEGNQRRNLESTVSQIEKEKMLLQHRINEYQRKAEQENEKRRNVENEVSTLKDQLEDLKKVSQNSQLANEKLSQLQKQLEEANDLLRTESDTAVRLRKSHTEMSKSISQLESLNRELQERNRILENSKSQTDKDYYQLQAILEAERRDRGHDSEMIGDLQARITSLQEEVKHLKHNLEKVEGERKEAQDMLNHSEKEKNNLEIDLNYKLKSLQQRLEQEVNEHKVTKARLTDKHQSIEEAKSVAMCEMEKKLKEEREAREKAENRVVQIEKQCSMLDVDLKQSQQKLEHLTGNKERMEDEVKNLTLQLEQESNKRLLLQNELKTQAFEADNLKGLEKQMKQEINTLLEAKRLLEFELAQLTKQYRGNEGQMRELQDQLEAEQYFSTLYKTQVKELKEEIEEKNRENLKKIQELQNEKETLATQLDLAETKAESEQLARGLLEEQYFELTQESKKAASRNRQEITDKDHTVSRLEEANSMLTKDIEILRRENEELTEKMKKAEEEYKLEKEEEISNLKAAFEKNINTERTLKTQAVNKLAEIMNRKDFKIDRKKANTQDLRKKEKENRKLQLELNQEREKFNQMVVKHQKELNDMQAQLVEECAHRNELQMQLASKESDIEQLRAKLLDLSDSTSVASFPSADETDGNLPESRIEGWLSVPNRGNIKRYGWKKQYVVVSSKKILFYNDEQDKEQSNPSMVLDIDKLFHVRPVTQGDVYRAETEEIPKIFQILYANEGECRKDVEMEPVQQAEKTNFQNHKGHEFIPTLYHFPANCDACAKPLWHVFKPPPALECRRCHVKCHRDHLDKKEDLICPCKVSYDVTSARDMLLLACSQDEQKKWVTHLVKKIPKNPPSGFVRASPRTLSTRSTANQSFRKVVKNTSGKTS

panel of 442 kinases [9] = target: T9, panel of 442 kinases (Homo sapiens, UniProt O94921); settings: kinase PFTK1; for remaining activity at 1 µM: read-out: % of control at 1 µM
T9 construct: purchased Ambit Biosciences (scanMAXX KINOMEscan)

panel of 442 kinases [10] = target: T10, panel of 442 kinases (Homo sapiens, UniProt P17948); settings: FLT1; for remaining activity at 1 µM: read-out: % of control at 1 µM
T10 construct: purchased Ambit Biosciences (scanMAXX KINOMEscan)
T10 sequence (P17948 27-1338): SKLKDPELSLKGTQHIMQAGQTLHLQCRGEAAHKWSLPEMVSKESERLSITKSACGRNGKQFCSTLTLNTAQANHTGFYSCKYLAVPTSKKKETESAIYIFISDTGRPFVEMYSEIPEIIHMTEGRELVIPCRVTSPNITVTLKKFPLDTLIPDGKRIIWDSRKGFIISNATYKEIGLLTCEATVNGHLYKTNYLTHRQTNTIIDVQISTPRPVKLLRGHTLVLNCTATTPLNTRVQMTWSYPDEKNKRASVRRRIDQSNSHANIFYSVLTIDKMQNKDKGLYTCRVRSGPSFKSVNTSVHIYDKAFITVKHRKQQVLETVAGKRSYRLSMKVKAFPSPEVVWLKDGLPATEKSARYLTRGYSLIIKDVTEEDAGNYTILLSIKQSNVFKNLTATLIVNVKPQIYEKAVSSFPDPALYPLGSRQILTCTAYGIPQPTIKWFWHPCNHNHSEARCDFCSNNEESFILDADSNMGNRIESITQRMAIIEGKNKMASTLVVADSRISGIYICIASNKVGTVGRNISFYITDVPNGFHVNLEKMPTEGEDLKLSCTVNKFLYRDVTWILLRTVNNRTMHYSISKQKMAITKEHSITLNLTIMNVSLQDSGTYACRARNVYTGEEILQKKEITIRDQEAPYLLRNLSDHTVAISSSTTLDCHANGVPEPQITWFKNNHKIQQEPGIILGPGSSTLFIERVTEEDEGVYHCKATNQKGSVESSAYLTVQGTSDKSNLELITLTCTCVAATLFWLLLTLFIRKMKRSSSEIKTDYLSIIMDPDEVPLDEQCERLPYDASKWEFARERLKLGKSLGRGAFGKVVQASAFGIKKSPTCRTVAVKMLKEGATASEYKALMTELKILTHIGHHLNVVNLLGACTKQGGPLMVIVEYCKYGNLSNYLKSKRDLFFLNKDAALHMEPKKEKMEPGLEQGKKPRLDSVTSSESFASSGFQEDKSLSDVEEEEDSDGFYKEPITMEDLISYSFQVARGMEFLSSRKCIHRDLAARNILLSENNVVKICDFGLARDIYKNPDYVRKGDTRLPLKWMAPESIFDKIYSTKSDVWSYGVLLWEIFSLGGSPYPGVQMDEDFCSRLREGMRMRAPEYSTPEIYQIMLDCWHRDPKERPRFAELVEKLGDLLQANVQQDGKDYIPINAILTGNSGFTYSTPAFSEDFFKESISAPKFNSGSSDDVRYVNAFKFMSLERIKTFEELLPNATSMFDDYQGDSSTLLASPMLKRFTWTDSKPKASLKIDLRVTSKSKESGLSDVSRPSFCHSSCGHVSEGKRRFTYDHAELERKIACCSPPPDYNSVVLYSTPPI

panel of 442 kinases [11] = target: T11, panel of 442 kinases (Homo sapiens, UniProt P51812); settings: kinase RSK2(Kin.Dom.1-N-terminal); for remaining activity at 1 µM: read-out: RSK2(Kin.Dom.1-N-terminal) (% of control at 1 µM)
T11 construct: purchased Ambit Biosciences (scanMAXX KINOMEscan)

panel of 442 kinases [12] = target: T12, panel of 442 kinases (Homo sapiens, UniProt Q9Y2H1); settings: kinase NDR2; for remaining activity at 1 µM: read-out: % of control at 1 µM
T12 construct: purchased Ambit Biosciences (scanMAXX KINOMEscan)

panel of 442 kinases [13] = target: T13, panel of 442 kinases (Homo sapiens, UniProt P42338); settings: kinase PIK3CB; 1 µM; read-out: % of control at 1 µM
T13 construct: purchased Ambit Biosciences (scanMAXX KINOMEscan)

[14] = 10 µM, read-out: % of control at 10 µM

Structure (SMILES)	remaining activity at 1 µM (panel of 442 kinases [1])	remaining activity at 1 µM (panel of 442 kinases [2])	remaining activity at 1 µM (panel of 442 kinases [3])	remaining activity at 1 µM (panel of 442 kinases [4])	remaining activity at 1 µM (panel of 442 kinases [5])	remaining activity at 1 µM (panel of 442 kinases [6])	remaining activity at 1 µM (panel of 442 kinases [7])	remaining activity at 1 µM (panel of 442 kinases [8])	remaining activity at 1 µM (panel of 442 kinases [9])	remaining activity at 1 µM (panel of 442 kinases [10])	remaining activity at 1 µM (panel of 442 kinases [11])	remaining activity at 1 µM (panel of 442 kinases [12])	remaining activity at 1 µM (panel of 442 kinases [13])	further results
Nc1cc(C(F)(F)F)c(-c2cc(N3CCOCC3)nc(N3CCOCC3)n2)cn1 [Buparlisib]	100%	95%	93%	100%	100%	92%	100%	86%	100%	100%	99%	90%	–	remaining activity at 10 µM (panel of 442 kinases [1]; [14]): 100%; remaining activity at 10 µM (panel of 442 kinases [2]; 10 µM, read-out: RIOK3 (% of control at 10 µM)): 95%; remaining activity at 10 µM (panel of 442 kinases [3]; [14]): 100%; remaining activity at 10 µM (panel of 442 kinases [4]; 10 µM, read-out: RIPK2 (% of control at 10 µM)): 100%; remaining activity at 10 µM (panel of 442 kinases [5]; [14]): 100%; remaining activity at 10 µM (panel of 442 kinases [6]; [14]): 100%; remaining activity at 10 µM (panel of 442 kinases [7]; 10 µM, read-out: ULK3 (% of control at 10 µM)): 100%; remaining activity at 10 µM (panel of 442 kinases [8]; 10 µM, read-out: ROCK1 (% of control at 10 µM)): 80%; remaining activity at 10 µM (panel of 442 kinases [9]; [14]): 97%; remaining activity at 10 µM (panel of 442 kinases [10]; [14]): 100%; remaining activity at 10 µM (panel of 442 kinases [11]; 10 µM, read-out: RSK2(Kin.Dom.1-N-terminal) (% of control at 10 µM)): 87%; remaining activity at 10 µM (panel of 442 kinases [12]; [14]): 100%
Cn1c(=O)n(-c2ccc(C(C)(C)C#N)cc2)c2c3cc(-c4cnc5ccccc5c4)ccc3ncc21 [Dactolisib, 2-methyl-2-[4-(3-methyl-2-oxo-8-quinolin-3-yl-2,3-dihydroimidazo[4,5-c]quinolin-1-yl)-phenyl] propionitrile]	92%	70%	–	37%	100%	97%	100%	52%	98%	86%	–	100%	64%	–
COc1ncc(-c2ccc3nccc(-c4ccnnc4)c3c2)cc1NS(=O)(=O)c1ccc(F)cc1F [Omipalisib]	100%	95%	100%	59%	73%	100%	100%	88%	97%	100%	62%	100%	0%	–
FC(F)c1nc2ccccc2n1-c1nc(N2CCOCC2)nc(N2CCOCC2)n1 [ZSTK474, 2-(difluoromethyl)-1-[4,6-di(4-morpholinyl)-1,3,5-triazin-2-yl]-1H-benzimidazole]	100%	71%	92%	83%	90%	100%	97%	75%	100%	100%	88%	100%	0%	–
